In assay [1] the target is Cyclin-dependent kinase 4 (Homo sapiens, UniProt P11802). Kind of assay: Inhibitory concentration against CDK4.
Assay [2] concerns the target Serine/threonine-protein kinase AKT (Homo sapiens, UniProt P31751+Q9Y243+P31749). Kind of assay: Inhibitory concentration against AKT. The assay is classed as protein assay.
Assay [3] concerns the target Receptor tyrosine-protein kinase erbB-2 (Homo sapiens, UniProt P04626). Kind of assay: nhibitory concentrations against ErbB-2.
Assay [4] concerns the target Proto-oncogene tyrosine-protein kinase Src (Homo sapiens, UniProt P12931). Description: Inhibitory concentration against Src kinase.
Assay [5] has as its system Mus musculus. Kind of assay: Plasma levels in nude mouse after administration at a single dose of 50 mg/kg ip after 4 hr. Particulars: route intraperitoneal. In kind it is functional.
Assay [6] concerns Mus musculus. Description: Plasma levels in nude mouse after administration at a single dose of 50 mg/kg ip after 8 hr. The assay is classed as functional. Particulars: route intraperitoneal.
Assay [7] relates to Mus musculus. Description: Plasma levels in nude mouse after administration at a single dose of 50 mg/kg ip after 24 hours. The assay is classed as functional. The note with it: route intraperitoneal.
Assay [8] concerns Mus musculus. Description: Plasma levels in nude mouse after administration at a single dose of 50 mg/kg ip after 0.5 hours. In kind it is functional. Particulars: route intraperitoneal.
For assay [9], the species on record is Mus musculus. Particulars: dose 50 mg/kg; route intraperitoneal.
The subject of assay [10] is Mus musculus. Kind of assay: Plasma levels in nude mouse after administration at a single dose of 50 mg/kg ip after 4 hours. The assay is classed as functional. Particulars: route intraperitoneal.
In assay [11] the test system is Mus musculus. Description: Plasma levels in nude mouse after administration at a single dose of 50 mg/kg ip after 8 hours. Particulars: route intraperitoneal. In kind it is functional.

Sequence of Receptor tyrosine-protein kinase erbB-2 (P04626 whole entry): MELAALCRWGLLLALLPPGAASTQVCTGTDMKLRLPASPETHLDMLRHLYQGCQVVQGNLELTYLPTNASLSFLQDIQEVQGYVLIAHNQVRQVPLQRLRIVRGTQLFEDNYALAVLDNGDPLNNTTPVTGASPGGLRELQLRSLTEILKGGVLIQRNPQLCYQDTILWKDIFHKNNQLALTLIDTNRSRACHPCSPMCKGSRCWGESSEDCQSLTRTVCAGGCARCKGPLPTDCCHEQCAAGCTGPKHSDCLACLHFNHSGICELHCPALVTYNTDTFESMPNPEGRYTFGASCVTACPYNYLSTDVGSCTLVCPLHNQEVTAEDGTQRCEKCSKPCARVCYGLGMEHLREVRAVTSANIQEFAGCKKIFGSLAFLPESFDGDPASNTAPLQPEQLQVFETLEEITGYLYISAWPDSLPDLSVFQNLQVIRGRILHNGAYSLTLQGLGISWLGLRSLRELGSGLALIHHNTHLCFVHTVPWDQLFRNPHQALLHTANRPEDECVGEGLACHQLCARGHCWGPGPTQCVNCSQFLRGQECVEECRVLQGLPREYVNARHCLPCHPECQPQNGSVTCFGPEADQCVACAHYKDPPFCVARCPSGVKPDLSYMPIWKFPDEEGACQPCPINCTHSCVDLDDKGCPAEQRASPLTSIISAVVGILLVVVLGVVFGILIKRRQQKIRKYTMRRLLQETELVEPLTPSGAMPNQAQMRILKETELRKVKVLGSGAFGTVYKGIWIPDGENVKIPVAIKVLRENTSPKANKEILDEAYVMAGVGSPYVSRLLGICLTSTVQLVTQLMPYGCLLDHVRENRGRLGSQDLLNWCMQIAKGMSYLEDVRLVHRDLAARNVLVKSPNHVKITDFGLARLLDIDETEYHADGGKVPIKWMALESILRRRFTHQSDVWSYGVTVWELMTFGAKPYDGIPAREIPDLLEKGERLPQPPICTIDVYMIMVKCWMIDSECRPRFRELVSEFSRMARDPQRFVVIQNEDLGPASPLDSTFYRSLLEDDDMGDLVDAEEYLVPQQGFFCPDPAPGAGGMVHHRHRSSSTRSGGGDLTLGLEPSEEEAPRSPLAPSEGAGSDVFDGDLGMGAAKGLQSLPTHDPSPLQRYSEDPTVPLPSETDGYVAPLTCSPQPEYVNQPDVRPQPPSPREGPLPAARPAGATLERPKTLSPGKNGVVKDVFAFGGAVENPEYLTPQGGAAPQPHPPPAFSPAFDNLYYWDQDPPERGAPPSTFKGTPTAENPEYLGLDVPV
Sequence of Proto-oncogene tyrosine-protein kinase Src (P12931 2-536 limits assumed): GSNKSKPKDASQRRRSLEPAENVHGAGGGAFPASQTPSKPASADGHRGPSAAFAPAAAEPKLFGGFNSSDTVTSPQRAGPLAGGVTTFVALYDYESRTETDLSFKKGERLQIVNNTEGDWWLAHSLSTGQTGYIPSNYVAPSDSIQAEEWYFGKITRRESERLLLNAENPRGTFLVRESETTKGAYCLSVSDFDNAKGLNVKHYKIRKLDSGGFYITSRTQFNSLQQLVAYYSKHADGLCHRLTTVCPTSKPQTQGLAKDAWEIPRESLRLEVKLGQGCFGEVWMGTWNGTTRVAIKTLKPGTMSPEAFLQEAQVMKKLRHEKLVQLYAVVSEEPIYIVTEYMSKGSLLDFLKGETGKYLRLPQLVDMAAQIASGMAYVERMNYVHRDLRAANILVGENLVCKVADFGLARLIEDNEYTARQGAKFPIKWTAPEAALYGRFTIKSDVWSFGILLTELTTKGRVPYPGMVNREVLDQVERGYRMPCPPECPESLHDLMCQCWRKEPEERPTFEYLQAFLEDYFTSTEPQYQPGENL
Sequence of Cyclin-dependent kinase 4 (P11802 whole entry): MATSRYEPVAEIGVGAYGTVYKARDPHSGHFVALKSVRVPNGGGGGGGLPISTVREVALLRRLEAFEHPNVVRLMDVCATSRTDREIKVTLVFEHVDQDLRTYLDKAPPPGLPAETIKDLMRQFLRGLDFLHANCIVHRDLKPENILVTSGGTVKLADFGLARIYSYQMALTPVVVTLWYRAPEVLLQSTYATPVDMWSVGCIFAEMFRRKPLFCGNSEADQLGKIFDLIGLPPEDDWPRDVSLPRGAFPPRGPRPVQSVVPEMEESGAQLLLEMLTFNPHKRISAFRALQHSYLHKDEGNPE

Regarding `COc1cc(Nc2c(C#N)cnc3cc4cc(OCCN5CCOCC5)c(OC)cc4cc23)c(Cl)cc1Cl`, the IC50 (in general, the concentration at which inhibition is half-maximal) in assay [1] is above 10 µM; in assay [2] it was above 10 µM; in assay [3] it was 2500 nM; in assay [4], 0.46 nM. Also, the Activity was 1.9 µg/mL in the assay on Mus musculus [5], 0.3 µg/mL with Mus musculus [6], 0.02 µg/mL with Mus musculus [7] and 2.1 µg/mL in the assay with Mus musculus [8]. In the assay listed under Mus musculus [9], this compound gave a Growth inhibiton of 25%.
As for `COc1cc(Nc2c(C#N)cnc3cc4cc(OCCN5CCN(C)CC5)c(OC)cc4cc23)c(Cl)cc1Cl`, the Activity with Mus musculus [10] was determined as 0.63 µg/mL; in the assay on Mus musculus [11] it was 0.7 µg/mL; in the assay on Mus musculus [7], 0.24 µg/mL; in the assay with Mus musculus [8] it was 1.3 µg/mL. This compound had a Growth inhibiton in the assay listed under Mus musculus [9] of 20%.

The record behind these values is ChEMBL document CHEMBL1141082, “4-Anilino-7,8-dialkoxybenzo[g]quinoline-3-carbonitriles as potent Src kinase inhibitors” (J Med Chem, 2005).
